Literature values, collected in US7438896B2, “Method of skin care using lipoic and ascorbic acids” (N.V. Perricone LLC, priority 1995, dated 2008).

Key:
[1] = system: cultured human keratinocytes; details: compositions without serine
porcine skin = details: compositions without serine
rat edema = details: compared with lipoic alone or vitamin E alone

**Q.** What does the source list for `O=C(O)CCCCC1CCSS1` (stereo not shown) [lipoic acid, 1,2-dithiolane-3-pentanoic acid]?
**A.** effect on ceramide production [1]: had no effect; effect on ceramide production (porcine skin): had no effect

**Q.** Which “anti-inflammatory effect in rat edema model” value (rat edema) does the source give for `O=C(O)CCCC[C@@H]1CCSS1` (single isomer, unassigned) [R-enantiomer of lipoic acid] here?
**A.** superior to lipoic alone or to vitamin E alone

**Q.** With `O=C(O)CCCC[C@H]1CCSS1` (single isomer, unassigned) [S-enantiomer] as the compound, how does the “effect on the action of insulin” value (insulin) read?
**A.** decreased the effect of insulin
